Source: patent US8815852B2, “Carbamoyloxy arylalkan arylpiperazine analgesics” (SK Biopharmaceuticals Co., Ltd., priority 2007, dated 2014)
Where two headings read alike, the source gives them in different places.

System: male ICR mouse
Experiment: Acetic acid-induced writhing test in mouse
Assay type: in vivo
Conditions: for ED50 / inhibition in vivo at 10 mg/kg: Mus musculus; for ED50: unit not given (method doses in mg/kg), read-out: AA Writhing: ED50; for inhibition in vivo at 10 mg/kg: 1 h, read-out: AA Writhing: Suppression ratio of Pain response
Experimental: 2. Acetic Acid-Induced Writhing Test in Mouse
An acetic acid-induced writhing test is one of models for measuring an analgesic effect of drugs. A test material dissolved in a suitable vehicle was orally administered to a male ICR mouse weighing 30 to 35 g at an amount of 10 mg/kg. After 1 hour of the oral administration, […] of an aqueous 0.8% acetic acid solution was intraperitoneally injected into the male ICR mouse to induce the abdominal pain of the male ICR mouse. Right after the administration of acetic acid, the male ICR mouse was put into an empty cage, and the number of writhing behaviors of the mice was counted for 10 minutes. The term “writhing represents a reflex action in which the mouse overtly extends its abdomen by stretching its hind legs due to the abdominal pain. The analgesic effect of the test material is represented by the ‘suppression ratio of pain response’ {[(Writhing number of Vehicle-administered group−Writhing number of Test material-administered group)/(Writhing number of Vehicle-administered group)]×100%} or 50% of Effective amount (ED50 (median effective dose); an amount of test material that is required to suppress 50% of pain behaviors) of Test material. The ED50 (median effective dose) was determined by calculating the suppression ratio of pain response in at least three doses of test materials and subjecting to the linear regression.

[1] = po, at 10 po (method: 10 mg/kg oral, 1 hour before acetic acid)

Structure (SMILES): COc1ccc(N2CCN(CCC(OC(N)=O)c3ccc(F)cc3)CC2)cc1 (centres unmarked) [Example 77, Carbamic acid 1-(4-fluoro-phenyl)-3-[4-(4-methoxy-phenyl)-piperazin-1-yl]-propyl ester]
- ED50 (po): 12.4 mg/kg

Structure (SMILES): NC(=O)OC(CCN1CCN(c2ccc(O)cc2)CC1)c1ccc(Cl)c(Cl)c1 (centres unmarked) [Example 73, Carbamic acid 1-(3,4-dichloro-phenyl)-3-[4-(4-hydroxy-phenyl)-piperazin-1-yl]-propyl ester]
- inhibition in vivo at 10 mg/kg [1]: 55%

Structure (SMILES): COc1ccc(N2CC(C)N(CC[C@@H](OC(N)=O)c3ccccc3)C(C)C2)cc1 (stereo partly drawn) [Example 101, Carbamic acid (R)-3-[4-(4-methoxy-phenyl)-2,6-dimethyl-piperazin-1-yl]-1-phenyl-propyl ester]
- inhibition in vivo at 10 mg/kg [1]: 48%

Structure (SMILES): COc1ccc(N2CCN(CCC(OC(N)=O)c3cccc(C)c3)CC2)cc1 (centres unmarked) [Example 57, Carbamic acid 3-[4-(4-methoxy-phenyl)-piperazin-1-yl]-1-m-tolyl-propyl ester]
- inhibition in vivo at 10 mg/kg [1]: 52%

Structure (SMILES): NC(=O)OC(CCN1CCN(c2ccc(OCc3ccccc3)cc2)CC1)c1ccccc1 (centres unmarked) [Example 85, Carbamic acid 3-[4-(4-benzyloxyphenyl)-piperazin-1-yl]-1-phenyl-propyl ester]
- inhibition in vivo at 10 mg/kg [1]: 58%

Structure (SMILES): COc1ccc(N2CCN(CCC(OC(N)=O)c3ccccc3C)CC2)cc1 (centres unmarked) [Example 59, Carbamic acid 3-[4-(4-methoxy-phenyl)-piperazin-1-yl]-1-o-tolyl-propyl ester]
- inhibition in vivo at 10 mg/kg [1]: 48%

Structure (SMILES): COc1ccc(N2CCN(CCC(OC(N)=O)c3ccc(F)c(F)c3)CC2)cc1 (centres unmarked) [Example 52, Carbamic acid 1-(3,4-difluoro-phenyl)-3-[4-(4-methoxy-phenyl)-piperazin-1-yl]-propyl ester]
- inhibition in vivo at 10 mg/kg [1]: 61%

Structure (SMILES): COc1ccc(N2CCN(C(C)CC(OC(N)=O)c3ccccc3)CC2)cc1OC (centres unmarked) [Example 113, Carbamic acid 3-[4-(3,4-dimethoxy-phenyl)-piperazin-1-yl]-1-phenyl-butyl ester]
- inhibition in vivo at 10 mg/kg [1]: 57%

Structure (SMILES): COc1ccc(N2CCN(CCC(OC(N)=O)c3cc(C)ccc3C)CC2)cc1 (centres unmarked) [Example 62, Carbamic acid 1-(2,5-dimethyl-phenyl)-3-[4-(4-methoxy-phenyl)-piperazin-1-yl]-propyl ester]
- inhibition in vivo at 10 mg/kg [1]: 62%

Structure (SMILES): COc1ccc(N2CCN(C(C)CC(OC(N)=O)c3ccccc3)CC2)cc1 (centres unmarked) [Example 108, Carbamic acid 3-[4-(4-methoxy-phenyl)-piperazin-1-yl]-1-phenyl-butyl ester]
- inhibition in vivo at 10 mg/kg [1]: 83.5%

Structure (SMILES): CC(CC(OC(N)=O)c1ccccc1)N1CCN(c2ccc(Cl)cc2)CC1 (centres unmarked) [Example 109, Carbamic acid 3-[4-(4-chloro-phenyl)-piperazin-1-yl]-1-phenyl-butyl ester]
- inhibition in vivo at 10 mg/kg [1]: 84%

Structure (SMILES): NC(=O)OC(CCN1CCN(c2ccc(O)cc2)CC1)c1ccc(Cl)c(C(F)(F)F)c1 (centres unmarked) [Example 72, Carbamic acid 1-(4-chloro-3-trifluoromethyl-phenyl)-3-[4-(4-hydroxy-phenyl)-piperazin-1-yl]-propyl ester]
- inhibition in vivo at 10 mg/kg [1]: 53%

Structure (SMILES): NC(=O)OC(c1ccccc1)C(F)CN1CCN(c2ccccc2)CC1 (centres unmarked) [Example 117, Carbamic acid 2-fluoro-1-phenyl-3-(4-phenyl-piperazin-1-yl)-propyl ester]
- ED50 (po): 32.2 mg/kg

Structure (SMILES): COc1ccc(N2CCN(CCC(OC(N)=O)c3ccc([N+](=O)[O-])cc3)CC2)cc1 (centres unmarked) [Example 44, Carbamic acid 3-[4-(4-methoxy-phenyl)-piperazin-1-yl]-1-(4-nitro-phenyl)-propyl ester]
- inhibition in vivo at 10 mg/kg [1]: 64%

Structure (SMILES): CC(CC(OC(N)=O)c1ccccc1)N1CCN(c2ccc(F)cc2F)CC1 (centres unmarked) [Example 116, Carbamic acid 3-[4-(2,4-difluoro-phenyl)-piperazin-1-yl]-1-phenyl-butyl ester]
- inhibition in vivo at 10 mg/kg [1]: 87%

Structure (SMILES): Cc1ccc(N2CCN(C(C)CC(OC(N)=O)c3ccccc3)CC2)cc1C (centres unmarked) [Example 111, Carbamic acid 3-[4-(3,4-dimethyl-phenyl)-piperazin-1-yl]-1-phenyl-butyl ester]
- inhibition in vivo at 10 mg/kg [1]: 95%

Structure (SMILES): COc1ccc(N2CCN(CCC(OC(N)=O)c3ccc(Cl)cc3Cl)CC2)cc1 (centres unmarked) [Example 58, Carbamic acid 1-(2,4-dichloro-phenyl)-3-[4-(4-methoxy-phenyl)-piperazin-1-yl]-propyl ester]
- inhibition in vivo at 10 mg/kg [1]: 16%

Structure (SMILES): Cc1cccc(N2CCN(CCC(OC(N)=O)c3ccccc3)CC2)c1 (centres unmarked) [Example 24, Carbamic acid 1-phenyl-3-(4-m-tolylpiperazin-1-yl)-propyl ester]
- ED50 (ip): 0.81 mg/kg

Structure (SMILES): CCOC(=O)Oc1ccc(N2CCN(CCC(OC(N)=O)c3ccc(F)cc3)CC2)cc1 (centres unmarked) [Example 90, Carbonic acid 4-{4-[3-carbamoyloxy-3-(4-fluoro-phenyl)-propyl]-piperazin-1-yl}-phenyl ethyl ester]
- ED50 (po): 23.4 mg/kg

Structure (SMILES): COc1ccc(N2CCN(CCC(OC(N)=O)c3ccc(C)c(C)c3)CC2)cc1 (centres unmarked) [Example 61, Carbamic acid 1-(3,4-dimethyl-phenyl)-3-[4-(4-methoxy-phenyl)-piperazin-1-yl]-propyl ester]
- inhibition in vivo at 10 mg/kg [1]: 58%

Structure (SMILES): COc1ccc(N2CCN(CCC(OC(N)=O)c3ccccc3)CC2)c(OC)c1 (centres unmarked) [Example 17, Carbamic acid 3-[4-(2,4-dimethoxy-phenyl)-piperazin-1-yl]-1-phenyl-propyl ester]
- inhibition in vivo at 10 mg/kg [1]: 19%

Structure (SMILES): COc1ccc(N2CCN(CCC(OC(N)=O)c3ccccc3[N+](=O)[O-])CC2)cc1 (centres unmarked) [Example 64, Carbamic acid 3-[4-(4-methoxy-phenyl)-piperazin-1-yl]-1-(2-nitro-phenyl)-propyl ester]
- inhibition in vivo at 10 mg/kg [1]: 59%

Structure (SMILES): COc1ccc(N2CCN(CCC(OC(N)=O)c3ccccc3F)CC2)cc1 (centres unmarked) [Example 46, Carbamic acid 1-(2-fluoro-phenyl)-3-[4-(4-methoxy-phenyl)-piperazin-1-yl]-propyl ester]
- inhibition in vivo at 10 mg/kg [1]: 42%

Structure (SMILES): NC(=O)OC(CCN1CCN(c2ccc(C(F)(F)F)cc2)CC1)c1ccccc1 (centres unmarked) [Example 40, Carbamic acid 1-phenyl-3-[4-(4-trifluoromethyl-phenyl)-piperazin-1-yl]-propyl ester]
- ED50 (ip): 1.64 mg/kg

Structure (SMILES): COc1ccc(N2CCN(CCC(OC(N)=O)c3ccc(C)cc3C)CC2)cc1 (centres unmarked) [Example 60, Carbamic acid 1-(2,4-dimethyl-phenyl)-3-[4-(4-methoxy-phenyl)-piperazin-1-yl]-propyl ester]
- inhibition in vivo at 10 mg/kg [1]: 62%

Structure (SMILES): COc1ccc(C(CCN2CCN(c3ccc(OC)cc3)CC2)OC(N)=O)cc1 (centres unmarked) [Example 47, Carbamic acid 1-(4-methoxy-phenyl)-3-[4-(4-methoxy-phenyl)-piperazin-1-yl]-propyl ester]
- inhibition in vivo at 10 mg/kg [1]: 53%

Structure (SMILES): CC(CC(OC(N)=O)c1ccccc1)N1CCN(c2ncc(Cl)cc2Cl)CC1 (centres unmarked) [Example 114]
- inhibition in vivo at 10 mg/kg [1]: 39%

Structure (SMILES): COc1ccc(N2CCN(CCC(OC(N)=O)c3ccccc3F)CC2)cc1 (centres unmarked) [Example 69, Carbamic acid 1-(2-fluoro-phenyl)-3-[4-(4-methoxy-phenyl)-piperazin-1-yl]-propyl ester]
- AA Writhing: Suppression ratio of Pain response (at 10 po (method: 10 mg/kg oral, 1 hour before acetic acid)): 57%

Structure (SMILES): COc1ccc(N2CCN(CCC(OC(N)=O)c3ccc4ccccc4c3)CC2)cc1 (centres unmarked) [Example 49, Carbamic acid 3-[4-(4-methoxy-phenyl)-piperazin-1-yl]-1-naphthalen-2-yl-propyl ester]
- inhibition in vivo at 10 mg/kg [1]: 64%
